From patent US20050004186A1, “MEK inhibiting compounds” (Pfizer Inc, priority 2002, published 2005)

Assays:
MEK = experiment: Cellular assay for measuring MEK inhibition, C26ELSA (pERK ELISA format in C26 cells); assay type: cell-based, murine; conditions: for IC50: murine colon 26 (C26) carcinoma cells, one hour at 37 C
Protocol: Cellular Assay for Measuring MEK Inhibition
MEK inhibitors were evaluated by determining their ability to inhibit phosphorylation of MAP kinase (ERK) in murine colon 26 (C26) carcinoma cells. Since ERK1 and ERK2 represent the only known substrates for MEK1 and MEK2, the measurement of inhibition of ERK phosphorylation in cells provides direct read out of cellular MEK inhibition by the compounds of the invention. Detection of phosphorylation of ERK was carried out either by Western blot or ELISA format. Briefly, the assays involve treatment of exponentially growing C26 cells with varying concentrations of the test compound (or vehicle control) for one hour at 37≡ C. For Western blot assay, cells were rinsed free of compound/vehicle and lysed in a solution containing 70 mM NaCl, 50 mM glycerol phosphate, 10 mM HEPES, […], 1% Triton X-100, 1 mM Na3VO4, 100 μM PMSF, 10 μM leupeptin and 10 μM pepstatin. Supernatants were then subjected to gel electrophoresis and hybridized to a primary antibody recognizing dually phosphorylated ERK1 and ERK2. To evaluate total MAPK levels, blots were subsequently ‘stripped’ and re-probed with a 1:1 mixture of polyclonal antibodies recognizing unphosphorylated ERK1 and ERK2. For pERK ELISA assay, pERK TiterZyme Enzyme immunometric Assay kits were acquired from Assay Designs, Inc (Ann Arbor, Mich.). Briefly, cells were harvested in lysis solution containing 50 mM β-glycerophosphate, 10 mM HEPES, pH7.4, 70 mM NaCl, 2 mM EDTA and 1% SDS and protein lysates were diluted 1:15 with supplied Assay buffer prior to the execution of the assay. The subsequent steps were carried out essentially as recommended by the manufacturer.

SMILES	IC50 (MEK) [nM]	melting point	C26ELSA % Inhibition @ 5 μM (MEK; C26 cells) [%]	C26ELSA % Inhib @ 0.5 μM (MEK; 0.5 μM, C26 cells) [%]
C#Cc1ccc(Nc2c(-c3nnc(NCCO)o3)ccc(F)c2F)c(F)c1 [Example 140, 2-{5-[2-(4-Ethynyl-2-fluoro-phenylamino)-3,4-difluoro-phenyl]-[1,3,4]oxadiazol-2-ylamino}-ethanol]	3	115.9 to 116.5 °C	–	–
CCc1nnc(-c2ccc(F)c(F)c2Nc2ccc(I)cc2F)o1 [Example 143, [6-(5-Ethyl-[1,3,4]oxadiazol-2-yl)-2,3-difluoro-phenyl]-(2-fluoro-4-iodo-phenyl)-amine]	–	97 to 98 °C	88	–
OCCCc1ccc(Nc2c(-c3nnc(NCCN4CCOCC4)o3)ccc(F)c2F)c(F)c1 [Example 147, 3-(4-{2,3-Difluoro-6-[5-(2-morpholin-4-yl-ethylamino)-[1,3,4]oxadiazol-2-yl]-phenylamino}-3-fluoro-phenyl)-propan-1-ol]	34000	102 to 106 °C	–	–
C#Cc1ccc(Nc2c(-c3nnc(NCCN4CCOCC4)o3)ccc(F)c2F)c(F)c1 [Example 148, {5-[2-(4-Ethynyl-2-fluoro-phenylamino)-3,4-difluoro-phenyl]-[1,3,4]oxadiazol-2-yl}-(2-morpholin-4-yl-ethyl)-amine]	63	146 to 148 °C	–	–
OC[C@H](O)CNc1nnc(-c2ccc(F)c(F)c2Nc2ccc(I)cc2F)o1 [Example 150, 3-{5-[3,4-Difluoro-2-(2-fluoro-4-iodo-phenylamino)-phenyl]-[1,3,4]oxadiazol-2-ylamino}-propane-1,2 (R)-diol]	92	174 to 176 °C	–	–
C#Cc1ccc(Nc2c(-c3nnc(NC[C@@H](O)CO)o3)ccc(F)c2F)c(F)c1 [Example 151, 3-{5-[2-(4-Ethynyl-2-fluoro-phenylamino)-3,4-difluoro-phenyl]-[1,3,4]oxadiazol-2-ylamino}-propane-1,2(R)-diol]	120	–	–	–
CCc1ccc(Nc2c(-c3nnc(NC[C@@H](O)CO)o3)ccc(F)c2F)c(F)c1 [Example 152, 3-{5-[2-(4-Ethyl-2-fluoro-phenylamino)-3,4-difluoro-phenyl]-[1,3,4]oxadiazol-2-ylamino}-propane-1,2(R)-diol]	2400	150 to 152 °C (dec.)	–	–
OCC(CO)Nc1nnc(-c2ccc(F)c(F)c2Nc2ccc(I)cc2F)o1 [Example 154, 2-{5-[3,4-Difluoro-2-(2-fluoro-4-iodo-phenylamino)-phenyl]-[1,3,4]oxadiazol-2-ylamino}-propane-1,3-diol]	110	110 to 114 °C (dec.)	–	–
C=Cc1ccc(Nc2c(-c3nnc(NCCN4CCOCC4)o3)ccc(F)c2F)c(F)c1 [Example 156, {5-[3,4-Difluoro-2-(2-fluoro-4-vinyl-phenylamino)-phenyl]-[1,3,4]oxadiazol-2-yl}-(2-morpholin-4-yl-ethyl)-amine]	710	174 to 177 °C	–	–
OCCc1ccc(Nc2c(-c3nnc(NCCN4CCOCC4)o3)ccc(F)c2F)c(F)c1 [Example 157, 2-(4-{2,3-difluoro-6-[5-(2-morpholin-4-yl-ethylamino)-[1,3,4]oxadiazol-2-yl]-phenylamino}-3-fluoro-phenyl)-ethanol]	–	–	33	31
OCCNc1nnc(-c2ccc(F)c(F)c2Nc2ccc(CCO)cc2F)o1 [Example 169, 2-(5-{3,4-difluoro-2-[2-fluoro-4-(2-hydroxy-ethyl)phenylamino]-phenyl}-[1,3,4]oxadiazol-2-ylamino)ethanol]	5100	–	–	–
